Values quoted from earlier work, collected in patent US5008416A, “Organogermanium compound, process for the preparation of same as well as use thereof” (Sanwa Kagaku Kenkyusho Co., Ltd., priority 1989, dated 1991).

Tests used:
[1] = Jap. Pat. No. Sho 61-151123(A), U.S. Pat. No. 4,889,715, EP 0186505; cited from earlier work
[2] = Cancer Res., Vol. 42, page 2852 (1982); cited from earlier work

Row | Compound | Immunomodulating activity (result in words) [1] | Anti-cancer or antitumor activity (result in words) [2]
1 | 3-oxygermylpropionic acid polymer | shows an excellent immunomodulating activity | –
2 | C[CH2][Ge]1([CH2]C)[CH2]CC2(CCN(CCCN(C)C)C2)C[CH2]1 [Spirogermanium] | – | shows an anti-cancer or antitumor activity
